We go through five compounds from PubChem BioAssay AID2511 (Broad Institute, 2010).

In the assay the test system is human washed platelets, SFLLRN-induced P-selectin, flow cytometry. Description: inhibitors of SFLLRN-triggered platelet P-selectin exposure, dose response, cell-based, fluorescence, flow cytometry, human platelets (AID 2511). To be noted: retest run 2. For orientation: In flow cytometry, cells or beads pass a laser one at a time.
On to `Cc1ccc(-n2c(N)c(C#N)c(-c3ccccc3)c(C#N)c2=O)cc1`, for which the EC50 (commonly the concentration giving half of the maximal effect) is under 3 µM.

As for `CCC(=O)Nc1cccc(NC(=O)c2ccccc2Br)c1`, the EC50 is under 3 µM.

Compound `CCCCC(=O)Nc1cccc(NC(=O)c2ccccc2Br)c1` gave a half-maximal effective concentration (EC50) of under 10 µM.

For `O=C(Nc1cccc(NC(=O)c2ccccc2Cl)c1)c1ccco1`, the EC50 is under 1 µM.

In turn, `CCCC(=O)Nc1cccc(NC(=O)c2ccccc2Br)c1` came in with a half-maximal effective concentration (EC50) of under 1 µM.
